Measured values taken from patent publication US5773414A, “Endothelin antagonists” (Warner-Lambert Company, priority 1997, dated 1998).
Structures can show the parent of a compound that is named as a salt. Numbered stars: 1 amine (or outer) side, 2 acyl side, 3 side chain; on linkers, the order of the positions; unused ones are H or OH. Square brackets hold non-standard residues; d marks the D form. Peptide text beside a SMILES is read from it. * marks the point of attachment. X3 = Cc1c(C)c(C)c(C[C@@H](N[*:1])C(=O)[*:2])c(C)c1C; X2 = O=C([C@@H](Cc1c2ccccc2cc2ccccc12)N[*:1])[*:2]; dDip = N[C@@H](C(=O)O)C(c1ccccc1)c1ccccc1; d1Nal = N[C@H](Cc1cccc2ccccc12)C(=O)O; Acetyl(3-pyridyl) = O=C(Cc1cccnc1)*; NHcHex = C1CCC(N*)CC1; CO = O=C([*:1])[*:2]; Propionyl = CCC(=O)*; Tfa = O=C(C(F)(F)F)*

How the values were obtained:
ETA = biological target: T1, ETA (Oryctolagus cuniculus, UniProt A5A8K3); experiment: Endothelin Receptor Binding Assay-A (ETA), intact cell binding of [125I]-ET-1; parameters: species or system rabbit; details: Table IIa; for IC50: rabbit renal artery vascular smooth muscle cells, read-out: Binding Assay IC50 at Receptor Subtypes ETA
T1 construct: The cells used were rabbit renal artery vascular smooth muscle cells; endogenous in cells; host or cells: rabbit renal artery vascular smooth muscle cells
T1 sequence (A5A8K3 21-427): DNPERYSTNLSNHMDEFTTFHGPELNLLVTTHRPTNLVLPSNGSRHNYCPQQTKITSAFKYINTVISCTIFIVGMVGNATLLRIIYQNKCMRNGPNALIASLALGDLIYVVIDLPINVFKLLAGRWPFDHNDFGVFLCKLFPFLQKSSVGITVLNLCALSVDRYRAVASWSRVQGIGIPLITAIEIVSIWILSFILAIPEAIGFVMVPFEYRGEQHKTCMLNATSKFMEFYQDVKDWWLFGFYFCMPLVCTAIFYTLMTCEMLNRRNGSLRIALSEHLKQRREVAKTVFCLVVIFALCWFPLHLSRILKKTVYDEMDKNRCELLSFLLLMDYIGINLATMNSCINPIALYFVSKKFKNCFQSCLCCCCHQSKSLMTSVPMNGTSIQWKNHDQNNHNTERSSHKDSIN
Method: The cells used were rabbit renal artery vascular smooth muscle cells grown in a 48-well dish (1 cm^2) (confluent cells).
The growth media was Dulbeccos Modified Eagles/Ham's F12 which contained 10 fetal bovine serum and antibiotics (penicillin/streptomycin/fungizone).
Second, remove the assay buffers, place the dish on ice, and add 150 μL of cold assay buffer described above to each well. […] Next, place dish in a 37° C. water bath for about 2 hours and gently agitate the dish every 15 minutes. Discard the radioactive incubation mixture in the sink and wash wells 3 times with 1 mL of cold phosphate buffered saline. Last, add […] of 0.25M sodium hydroxide, agitate for 1 hour on rotator, and then transfer the sodium hydroxide extract to gamma counting tubes and count the radioactivity.

ETB = biological target: T2, ETB (Rattus norvegicus, UniProt P21451); experiment: Endothelin Receptor Binding Assay-B (ETB), [125I]-ET-1 binding in rat cerebellar membranes; details: Table IIa; for IC50: rat cerebellar membranes, read-out: Binding Assay IC50 at Receptor Subtypes ETB
T2 construct: thaw one aliquot of frozen rat cerebellar membranes; from tissue; host or cells: rat cerebellar membranes
T2 sequence (P21451 27-442): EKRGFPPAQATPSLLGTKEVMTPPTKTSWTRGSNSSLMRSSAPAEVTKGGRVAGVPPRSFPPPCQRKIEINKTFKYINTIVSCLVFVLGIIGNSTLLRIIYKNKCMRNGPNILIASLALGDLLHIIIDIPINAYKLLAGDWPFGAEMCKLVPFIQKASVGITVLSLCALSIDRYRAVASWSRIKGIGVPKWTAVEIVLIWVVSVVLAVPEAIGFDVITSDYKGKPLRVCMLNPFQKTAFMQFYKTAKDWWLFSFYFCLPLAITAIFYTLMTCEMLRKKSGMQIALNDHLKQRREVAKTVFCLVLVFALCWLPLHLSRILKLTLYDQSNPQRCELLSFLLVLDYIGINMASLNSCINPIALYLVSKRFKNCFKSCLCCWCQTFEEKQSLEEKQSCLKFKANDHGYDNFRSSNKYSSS
Method: The tissue is made up of 20 mM tris(hydroxymethyl)aminomethane hydrochloride (Trizma) buffer, 2 mM ethylenediaminetetraacetate, 100 μM phenylmethylsulfonyl fluoride.
First, thaw one aliquot of frozen rat cerebellar membranes (2 mg protein in 0.5 mL). Next, add 0.5 mL membrane aliquot to 4.5 mL cold tissue buffer, polytron at 7,500 revolutions per minute for 10 seconds. Finally, dilute tissue suspension 1/100 (0.1 mL suspension+9.9 mL tissue buffer), polytron again, and place ice.
Mix in 150 μL of tissue to each tube, vortex briefly, then tap to force all liquids to bottom (total assay volume=250 μL). Then place the tubes in a 37° C. water bath for 2 hours.
Add 2.5 mL cold water buffer (50 mM Trizma buffer) to each tube, filter, and then wash tube with additional 2.5 mL wash buffer and add to filter. Finally, wash filters with an additional 2.5 mL of cold wash buffer.
Count filters for radioactivity in gamma counter.

Compound	IC50 (ETA) [µM]	IC50 (ETB) [µM]	inhibition at 10 µM (ETA; @ 10 μM, read-out: Binding Assay % Inhibition at Receptor Subtypes ETA) [%]	inhibition at 10 µM (ETB; @ 10 μM, read-out: Binding Assay % Inhibition at Receptor Subtypes ETB) [%]
CC[C@H](C)[C@H](NC(=O)[C@H](CC(=O)O)NC(=O)[C@H](CC(C)C)NC(=O)[C@@H](Cc1c(C)c(C)c(C)c(C)c1C)NC(C)=O)C(=O)N[C@H](C(=O)N[C@@H](Cc1c[nH]c2ccccc12)C(=O)O)[C@@H](C)CC [Example 53, Ac--D--Pmp--Leu--Asp--Ile--Ile--Trp] (Ac-[X3]LDIIW-OH)	1.5	5.5		
CCC(=O)N[C@@H](C(=O)N[C@@H](CC(C)C)C(=O)N[C@@H](CC(=O)O)C(=O)N[C@H](C(=O)N[C@H](C(=O)N[C@@H](Cc1c[nH]c2ccccc12)C(=O)O)[C@@H](C)CC)[C@@H](C)CC)C(c1ccccc1)c1ccccc1 [Example 31, Et--D--Dip--Leu--Asp--Ile--Ile--Trp] (Propionyl-[dDip]LDIIW-OH)	1.8	2		
CC[C@H](C)[C@H](NC(=O)[C@H](CC(=O)O)NC(=O)[C@H](CC(C)C)NC(=O)[C@@H](Cc1ccccc1)NC(C)=O)C(=O)N[C@H](C(=O)N[C@@H](Cc1ccc(O)cc1)C(=O)O)[C@@H](C)CC [Example 89, Ac--D--Phe--Leu--Asp--Ile--Ile--Tyr] (Ac-[dF]LDIIY-OH)	> 10	0.22		
CC[C@H](C)[C@H](NC(=O)[C@H](CC(=O)O)NC(=O)[C@H](CC(C)C)NC(=O)[C@H](NC(=O)NC1CCCCC1)C(c1ccccc1)c1ccccc1)C(=O)N[C@H](C(=O)N[C@@H](Cc1c[nH]c2ccccc12)C(=O)O)[C@@H](C)CC [Example 36, Cxl(U)--D--Dip--Leu--Asp--Ile--Ile--Trp] ({NHcHex-CO}-[dDip]LDIIW-OH)	0.82	0.05		
CC[C@H](C)[C@H](NC(=O)[C@H](Cc1ccc(O)cc1)NC(=O)[C@H](N)C(c1ccccc1)c1ccccc1)C(=O)N[C@H](C(=O)N[C@@H](Cc1c[nH]c2ccccc12)C(=O)O)[C@@H](C)CC [Example 95, D--Dip--Tyr--Ile--Ile--Trp] (H-[dDip]YIIW-OH)	8	0.35		
CC[C@H](C)[C@H](NC(=O)[C@H](CC(=O)O)NC(=O)[C@H](CC(C)C)NC(=O)[C@@H](Cc1cccc2ccccc12)NC(C)=O)C(=O)N[C@H](C(=O)N[C@@H](Cc1c[nH]c2ccccc12)C(=O)O)[C@@H](C)CC [Example 45, Ac-1-D--Nal--Leu--Asp--Ile--Ile--Trp] (Ac-[d1Nal]LDIIW-OH)	0.3	0.45		
CC[C@H](C)[C@H](NC(=O)[C@H](CC(=O)O)NC(=O)[C@H](CC(C)C)NC(=O)[C@@H](Cc1ccccc1)NC(C)=O)C(=O)N[C@@H](C)C(=O)N[C@@H](Cc1c[nH]c2ccccc12)C(=O)O [Example 82, Ac--D--Phe--Leu--Asp--Ile--Ala--Trp] (Ac-[dF]LDIAW-OH)	8	> 1		
CC[C@H](C)[C@H](NC(=O)[C@H](CC(=O)O)NC(=O)[C@H](CC(C)C)NC(=O)[C@H](NC(=O)C(F)(F)F)C(c1ccccc1)c1ccccc1)C(=O)N[C@H](C(=O)N[C@@H](Cc1c[nH]c2ccccc12)C(=O)O)[C@@H](C)CC [Example 39, CF3 CO--D--Dip--Leu--Asp--Ile--Ile--Trp] (Tfa-[dDip]LDIIW-OH)	0.25	0.9		
CC[C@H](C)[C@H](NC(=O)[C@H](CC(=O)O)NC(=O)[C@H](CC(C)C)NC(=O)[C@H](NC(C)=O)C(c1ccccc1)c1ccccc1)C(=O)N[C@H](C(=O)N[C@@H](Cc1c[nH]c2ccccc12)C(=O)O)C(C)C [Example 86, Ac--D--Dip--Leu--Asp--Ile--Val--Trp] (Ac-[dDip]LDIVW-OH)	0.097	0.63		

Now from value to molecule:

IC50 (ETA) [µM]	IC50 (ETB) [µM]	inhibition at 10 µM (ETA; @ 10 μM, read-out: Binding Assay % Inhibition at Receptor Subtypes ETA) [%]	inhibition at 10 µM (ETB; @ 10 μM, read-out: Binding Assay % Inhibition at Receptor Subtypes ETB) [%]	Compound
1	6			CC[C@H](C)[C@H](NC(=O)[C@H](CCC(=O)O)NC(=O)[C@H](CC(=O)O)NC(=O)[C@H](CC(C)C)NC(=O)[C@H](NC(C)=O)C(c1ccccc1)c1ccccc1)C(=O)N[C@@H](Cc1c[nH]c2ccccc12)C(=O)O [Example 19, Ac--D--Dip--Leu--Asp--Glu--Ile--Trp] (Ac-[dDip]LDEIW-OH)
		37.4	64.7	CC[C@H](C)[C@H](NC(=O)[C@H](Cc1ccccc1)NC(=O)[C@H](CC(=O)O)NC(=O)[C@@H](Cc1ccccc1)NC(C)=O)C(=O)N[C@@H](Cc1c[nH]c2ccccc12)C(=O)O [Example 93, Ac--D--Phe--Asp--Phe--Ile--Trp] (Ac-[dF]DFIW-OH)
5.86	1.21			CC[C@H](C)[C@H](NC(=O)[C@H](CC(=O)O)NC(=O)[C@H](CC(C)C)NC(=O)[C@H](N)Cc1c2ccccc2cc2ccccc12)C(=O)N[C@H](C(=O)N[C@@H](Cc1c[nH]c2ccccc12)C(=O)O)[C@@H](C)CC [Example 54, D--Ana--Leu--Asp--Ile--Ile--Trp] (H-[X2]LDIIW-OH)
1	1.5			CC[C@H](C)[C@H](NC(=O)[C@H](CC(=O)O)NC(=O)[C@H](CC(C)C)NC(=O)[C@H](NC(=O)NC)C(c1ccccc1)c1ccccc1)C(=O)N[C@H](C(=O)N[C@@H](Cc1c[nH]c2ccccc12)C(=O)O)[C@@H](C)CC [Example 37, Me(U) --D--Dip--Leu--Asp--Ile--Ile--Trp] ({NHMe-CO}-[dDip]LDIIW-OH)
5	0.18			CC[C@H](C)[C@H](NC(=O)[C@H](CC(=O)O)NC(=O)[C@H](CC(C)C)NC(=O)[C@H](NC(=O)Cc1cccnc1)C(c1ccccc1)c1ccccc1)C(=O)N[C@H](C(=O)N[C@@H](Cc1c[nH]c2ccccc12)C(=O)O)[C@@H](C)CC [Example 33, Pya--D--Dip--Leu--Asp--Ile--Ile--Trp] ({Acetyl(3-pyridyl)}-[dDip]LDIIW-OH)
1	0.008			CC[C@H](C)[C@H](NC(=O)[C@H](Cc1ccccc1)NC(=O)[C@H](CC(C)C)NC(=O)[C@H](NC(C)=O)C(c1ccccc1)c1ccccc1)C(=O)N[C@H](C(=O)N[C@@H](Cc1c[nH]c2ccccc12)C(=O)O)[C@@H](C)CC [Example 16, Ac--D--Dip--Leu--Phe--Ile--Ile--Trp] (Ac-[dDip]LFIIW-OH)
6.43	0.833			CC[C@H](C)[C@H](NC(=O)[C@H](CC(N)=O)NC(=O)[C@H](CC(C)C)NC(=O)[C@H](N)C(c1ccccc1)c1ccccc1)C(=O)N[C@H](C(=O)N[C@@H](Cc1c[nH]c2ccccc12)C(=O)O)[C@@H](C)CC [Example 70, D--Dip--Leu--Asn--Ile--Ile--Trp] (H-[dDip]LNIIW-OH)
6	3.87			CC[C@H](C)[C@H](NC(=O)[C@H](CC(=O)O)NC(=O)[C@H](CC(C)C)NC(=O)[C@H](N)Cc1c(C)c(C)c(C)c(C)c1C)C(=O)N[C@H](C(=O)N[C@@H](Cc1c[nH]c2ccccc12)C(=O)O)[C@@H](C)CC [Example 52, D--Pmp--Leu--Asp--Ile--Ile--Trp] (H-[X3]LDIIW-OH)
0.015	0.08			CC[C@H](C)[C@H](NC(=O)[C@@H](NC(=O)[C@H](CC(=O)O)NC(=O)[C@H](CC(C)C)NC(=O)[C@H](NC(C)=O)C(c1ccccc1)c1ccccc1)C(C)C)C(=O)N[C@@H](Cc1c[nH]c2ccccc12)C(=O)O [Example 81, Ac--D--Dip--Leu--Asp--Val--Ile--Trp] (Ac-[dDip]LDVIW-OH)
